Laboratory results as given in patent US7022712B2, “Solubilization of weak bases” (Arizona Board of Regents on Behalf of the University of …, priority 2002, dated 2006).
Values after ≈ are worked out from the molar mass of the structure shown. Where two headings read alike, the source gives them in different places.

Columns and labels:
[1] = listed for preferred weak bases, no method given; cited from earlier work
[2] = in vivo; details: mouse
Source text: The bioavailability of carbendazim was studied in the mouse. An intravenous dose, a formulation of carbendazim in corn oil, and a formulation of carbendazim in phosphoric acid corresponding to the phosphoric acid concentration in Emetrol were each given to a mouse. The blood level on the graph is indicative of the amount of drug absorbed divided by the blood volume of the mouse.

[3] = physchem; assay type: physicochemical; details: for solubility at 10 days: thermodynamic from solid
Source text: The buffer systems used for the pH-solubilization profile were 0.01 M sodium citrate/HCl with pH range 1.2–4.0, 0.01 M citrate-phosphate-borate/HCl with pH range 4.0–8.0, and 0.01M glycine/NaOH with pH range 8.0–12.0. In all the above mentioned buffers the ionic strength was maintained at 0.1M using sodium chloride. The effect of buffer species on the solubility of carbendazim at very low and high pH was not observed because the Ksp of each salt was not reached. Solubility at different pH was determined in the same manner as described below.
(§1) An excess amount of carbendazim was added to vials containing 2 ml of an aqueous solution of pH 2.00±0.15 and 7.00±0.15 at different concentrations (0, 1, 2.5, 5, and 10%) of cosolvents (EtOH, PG, PEG 400, and Glycerol), surfactants (Tween 20, Tween 80, sodium lauryl sulfate (SLS), and myristoyl camitine (MC)) and cyclodextrins (HPβCD and SBEβCD). In addition the cosolvents and cyclodextrins were studied at 20%. The sample vials were rotated at 20 rpm using an end-over-end mechanical rotator (Glas-Col Laboratory rotator, Terre Haute, Ind.) at ambient temperature for 10 days. Ten days was selected to ensure equilibrium because the strong crystal structure and high melting point (305° C.) (Budavari, S., 1996. The Merck Index, Twelfth ed. Merck & Co, New Jersey) of carbendazim contributes to a very slow dissolution rate. For solutions having pH greater than 9, the solubility was measured after 3 days rotation instead of 10 days because of the unstable nature of carbendazim in alkaline condition. The samples were filtered through a 0.45-μm filter and the pH at equilibrium was measured before performing HPLC analysis.
(§2) The HPLC assay used an Econosphere C8 column (150*4.6 mm, Alltech, Los Altos, Calif.) with a mobile phase composed of pure methanol. The flow rate was controlled at 1.0 ml/min (125 solvent Module, Beckman, Fullerton, Calif.) and the effluent was detected at 280 nm (168 detector, Beckman, Fullerton, Calif.). All experimental data are the average of duplicate values with an average error less than 3%.
The formation of a resonance-stabilized cation and anion is believed responsible for the high solubilities at low and high pH that are shown in FIG. 2. […] FIGS. 7–9 show the pH profile of three other drugs, obtained using analogous methods.

[4] = physchem; assay type: physicochemical; details: thermodynamic from solid, Solubility of carbendazim
Method: as §1, with “Ten days was selected to ensure equilibrium because the strong crystal structure and high melting point (305° C.) (Budavari, S., 1996. The Merck Index, Twelfth ed. Merck & Co, New Jersey) of carbendazim contributes to a very slow dissolution rate.” left out
as §2, with “All experimental data are the average of duplicate values with an average error less than 3%.” left out

Molecule: Cc1cc(NC(=O)NC(=O)c2ccccc2N(C)C)ccc1Oc1ncc(N)cn1
- pKa [1]: ~5

Molecule: Corn oil
- % Bioavailability ([2]; po, 132 mg): 4.8–6.4%
- Cmax ([2]; po, 132 mg): 15000 to 20000 ng/mL

Molecule: COC(=O)Nc1nc2ccccc2[nH]1 [carbendazim, methyl 2-benzimidazolecarbamate]
- intrinsic solubility ([3]; 10 days): 6.11 µg/mL
- pKa ([3]; acidic pKa): 10.6
- pKa ([3]; basic pKa): 4.5
- solubility at 10 days ([3]; pH 1, aqueous buffer): 16000 µg/mL (≈ 83.7 mM)
- solubility at 10 days ([3]; pH 2, aqueous buffer): 1600 µg/mL (≈ 8.37 mM)
- solubility at 10 days ([4]; pH 2, aqueous buffer): 1640 µg/mL (≈ 8.58 mM)
- solubility at 10 days ([4]; pH 7, aqueous buffer): 6 µg/mL (≈ 0.0314 mM)
- Cmax ([2]; iv, 6.4 ug): 15000 ng/mL
- bioavailability ([2]; iv, 6.4 ug): 100%
